Bridge positions count the residues as written; N and C are the ends. Square brackets hold non-standard residues; d marks the D form. Peptide text beside a SMILES is read from it. S5 = C=CCCC[C@](C)(N)C(=O)O; Nle = CCCC[C@H](N)C(=O)O
System: HRE-bla ME-180 cells
Test: Reporter gene assay (HRE-bla ME-180 HIF reporter, GeneBLAzer)
Assay type: cell-based, human
Settings: for EC50: 24 hour normoxia
Outline: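 A FRET β-lactamase readout of HIF transcription was used. After compound treatment in 0.3% DMSO/media under normoxic conditions, 20 μl of 6× LiveBLAzer-FRET B/G (CCF4-AM) substrate was added. Plates sat 3 hr at room temperature in the dark and were read at 409 Ex/460Em and 409Ex/530Em on a Synergy 2. Inhibition was compared against DMSO vehicle controls, with chetomin as positive control.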

Structure (SMILES)	18 h Avg % max inhibition at top conc (HIF Rptr-24 hrs normoxia) (μM)	EC50 [µM]
CCCC[C@H](NC(=O)[C@H](CC(C)C)NC(=O)[C@@H](NC(=O)[C@H](CCC(=O)O)NC(=O)[C@H](CCC(=O)O)NC(=O)[C@H](CC(=O)O)NC(=O)[C@@H](NC(=O)[C@H](Cc1ccccc1)NC(C)=O)[C@@H](C)CC)C(C)C)C(=O)N[C@@]1(C)CCCC=CCCC[C@@](C)(C(=O)N[C@@H](CCCC)C(=O)N[C@@H](C)C(=O)N[C@@H](CC(C)C)C(=O)N[C@@H](CC(=O)O)C(=O)N[C@@H](CCCNC(=N)N)C(=O)N[C@@H](CO)C(N)=O)NC(=O)[C@H]([C@@H](C)CC)NC(=O)[C@H](C(C)C)NC(=O)[C@H](CC(C)C)NC1=O [SP-59] (Ac-FIDEEVL[Nle][S5]LVI[S5][Nle]ALDRS-NH2; staple 9-13)	+++ (≤25 but <50: +++)	15 to 30
CCCC[C@H](NC(=O)[C@H](CC(C)C)NC(=O)[C@@H](NC(=O)[C@H](CCC(=O)O)NC(=O)[C@H](CCC(=O)O)NC(=O)[C@H](C)NC(=O)[C@@H](NC(=O)[C@H](Cc1ccccc1)NC(C)=O)[C@@H](C)CC)C(C)C)C(=O)N[C@@]1(C)CCCC=CCCC[C@@](C)(C(=O)N[C@@H](CCCC)C(=O)N[C@@H](C)C(=O)N[C@@H](CC(C)C)C(=O)N[C@@H](CC(=O)O)C(=O)N[C@@H](CCCNC(=N)N)C(=O)N[C@H](C(N)=O)[C@@H](C)CC)NC(=O)[C@H]([C@@H](C)CC)NC(=O)[C@H](C(C)C)NC(=O)[C@H](CC(C)C)NC1=O [SP-11] (Ac-FIAEEVL[Nle][S5]LVI[S5][Nle]ALDRI-NH2; staple 9-13)	++++ (≥50: ++++)	5 to 15
CCCC[C@H](NC(=O)[C@H](CO)NC(=O)[C@@H](NC(=O)[C@H](CCC(=O)O)NC(=O)[C@H](CCC(=O)O)NC(=O)[C@H](CC(=O)O)NC(=O)[C@@H](NC(=O)[C@H](Cc1ccccc1)NC(C)=O)[C@@H](C)CC)C(C)C)C(=O)N[C@@]1(C)CCCC=CCCC[C@@](C)(C(=O)N[C@@H](CCCC)C(=O)N[C@@H](C)C(=O)N[C@@H](CC(C)C)C(=O)N[C@@H](CC(=O)O)C(=O)N[C@@H](CCCNC(=N)N)C(=O)N[C@H](C(N)=O)[C@@H](C)CC)NC(=O)[C@H]([C@@H](C)CC)NC(=O)[C@H](C(C)C)NC(=O)[C@H](CC(C)C)NC1=O [SP-49] (Ac-FIDEEVS[Nle][S5]LVI[S5][Nle]ALDRI-NH2; staple 9-13)	++++ (≥50: ++++)	5 to 15
CCCC[C@H](NC(=O)[C@H](CC(C)C)NC(=O)[C@@H](NC(=O)[C@H](CCC(N)=O)NC(=O)[C@H](CCC(=O)O)NC(=O)[C@H](CC(=O)O)NC(=O)[C@@H](NC(=O)[C@H](Cc1ccccc1)NC(C)=O)[C@@H](C)CC)C(C)C)C(=O)N[C@@]1(C)CCCC=CCCC[C@@](C)(C(=O)N[C@@H](CCCC)C(=O)N[C@@H](C)C(=O)N[C@@H](CC(C)C)C(=O)N[C@@H](CC(=O)O)C(=O)N[C@@H](CCCNC(=N)N)C(=O)N[C@H](C(N)=O)[C@@H](C)CC)NC(=O)[C@H]([C@@H](C)CC)NC(=O)[C@H](C(C)C)NC(=O)[C@H](CC(C)C)NC1=O [SP-69] (Ac-FIDEQVL[Nle][S5]LVI[S5][Nle]ALDRI-NH2; staple 9-13)	++++ (≥50: ++++)	5 to 15
CCCC[C@H](NC(=O)[C@H](CC(C)C)NC(=O)[C@H](CO)NC(=O)[C@H](CCC(=O)O)NC(=O)[C@H](CCC(=O)O)NC(=O)[C@H](CC(=O)O)NC(=O)[C@@H](NC(=O)[C@H](Cc1ccccc1)NC(C)=O)[C@@H](C)CC)C(=O)N[C@@]1(C)CCCC=CCCC[C@@](C)(C(=O)N[C@@H](CCCC)C(=O)N[C@@H](C)C(=O)N[C@@H](CC(C)C)C(=O)N[C@@H](CC(=O)O)C(=O)N[C@@H](CCCNC(=N)N)C(=O)N[C@H](C(N)=O)[C@@H](C)CC)NC(=O)[C@H]([C@@H](C)CC)NC(=O)[C@H](C(C)C)NC(=O)[C@H](CC(C)C)NC1=O [SP-48] (Ac-FIDEESL[Nle][S5]LVI[S5][Nle]ALDRI-NH2; staple 9-13)	+++ (≤25 but <50: +++)	15 to 30

From patent US20190225650A1, “PEPTIDOMIMETIC MACROCYCLES AND USE THEREOF IN REGULATING HIF1ALPHA” (AILERON THERAPEUTICS, INC., priority 2013, published 2019)
